Values quoted from earlier work as cited in US7625587B2, “Hepato phyto-nutraceutical synergistic composition” (priority 2006, dated 2009).

Assays:
[1] = test system: bacterial resistance mechanism (multidrug pump); conditions: in the presence of 5′-MHC
hepatic mitochondria = conditions: free oxygen radical induced damage
mice hepatocytes [2] = test system: mice hepatocytes
[3] = test system: carbon tetrachloride hepatotoxicity; conditions: mouse, in vivo
mice hepatocytes [4] = test system: mice hepatocytes; remark: listed apart in the source
beta-reductase = conditions: in vitro
[5] = test system: 11_beta-hydroxysteroid dehydrogenase; conditions: in vitro
[6] = test system: hepatic toxicity induced by paracetamol, prednisolone and bromobenzene; conditions: mice; pre-treatment during ten days

COc1cc([C@H]2Oc3cc(-c4cc(=O)c5c(O)cc(O)cc5o4)cc(OC)c3O[C@@H]2CO)ccc1O (racemic) [5′-methoxyhydnocarpin]
accumulation of berberine in the cells [1]: strong increase of accumulation of berberine

COc1cc(/C=C/C(=O)O)ccc1O [Ferulic acid, ferulic acid]
protection of hepatic mitochondria (hepatic mitochondria): protected the hepatic mitochondria

CC1(C)[C@@H](O[C@H]2O[C@H](C(=O)O)[C@@H](O)[C@H](O)[C@H]2O[C@@H]2O[C@H](C(=O)O)[C@@H](O)[C@H](O)[C@H]2O)CC[C@]2(C)[C@H]3C(=O)C=C4[C@@H]5C[C@@](C)(C(=O)O)CC[C@]5(C)CC[C@@]4(C)[C@]3(C)CC[C@@H]12 [Glycyrrhizin]
liberation of histamine (mice hepatocytes [2]): inhibited the liberation of histamine
hepatic injuries induced by carbon tetrachloride [3]: prevented hepatic injuries

CC1(C)[C@@H](O[C@H]2O[C@H](C(=O)O)[C@@H](O)[C@H](O)[C@H]2O[C@@H]2O[C@H](C(=O)O)[C@@H](O)[C@H](O)[C@H]2O)CC[C@]2(C)[C@H]3C(=O)C=C4[C@@H]5C[C@@](C)(C(=O)O)CC[C@]5(C)CC[C@@]4(C)[C@]3(C)CC[C@@H]12 [glicirricinic acid]
toxic action of carbon tetrachloride and of galactosamine (mice hepatocytes [4]): reduces the toxic action

CC1(C)[C@@H](O)CC[C@]2(C)[C@H]3C(=O)C=C4[C@@H]5C[C@@](C)(C(=O)O)CC[C@]5(C)CC[C@@]4(C)[C@]3(C)CC[C@@H]12 [glycyrrhetic acid]
inhibition of beta-reductase (beta-reductase): inhibits
inhibition of 11_beta-hydroxysteroid dehydrogenase [5]: inhibits

COc1cc(/C=C/C(=O)[O-])ccc1O.[Na+] [sodium ferulate]
drug induced hepatic toxicity [6]: improved the hepatic toxicity
